According to patent EP2764866A1, “Inhibitors of nedd8-activating enzyme” (IP Gesellschaft für Management mbH, priority 2013, dated 2014):
Converted amounts (≈) assume the structure as drawn. Counter-ions that a name gives are not always drawn. Like-named read-outs stand apart in the source and are kept apart here.

Legend:
[1] = from COC(=O)[C@@H]1C[C@@H](Oc2nc3cc(OC)ccc3nc2C#CCCC[C@@H]2C[C@H]2OC(=O)N[C@H](C(=O)O)C(C)(C)C)CN1; amide bond; HATU; DMAc; 86.2 mM; 0.0 °C; 12.0 h
[2] = test system: human c-mpl-Ba/F3 cell; experiment: Mouse oral administration test (plasma activity in the c-mpl-Ba/F3 proliferation system); assay type: in vivo, male ICR mice; settings: for activity at 3 mg/kg: Mus musculus, po, 2 h; for Cell proliferation activity (%) 0.3%: 0.3% blood plasma concentration; for oral absorption: conclusion from the mouse oral administration test
[3] = test system: Human c-mpl-Ba/F3 cells; experiment: Cell proliferation test for human c-mpl-Ba/F3 cells; assay type: cell-based
Method: Test Example I Cell Proliferation Test for Human c-mpl-Ba/F3 Cells: Human c-mpl-Ba/F3 cells at a concentration of 2 x 10^5 cells/mL were cultured at 37 °C on a 96 well microplate using RPMI 1640 culture medium (100 microliter/well) containing 10% fetal calf serum to which various concentrations of the test compound was added. After 24 hours from the start of culturing, 10 microliter/well of WST-1/1-methoxy PMS (cell measuring kit, Dojin) was added. Immediately after the addition and two hours later, the A450/A650 absorbance was measured using a microplate reader (Model 3350, Bio-Rad), and the increase in absorbance after 2 hours was interpreted to represent the proliferation activity of each test compound. […] Furthermore, the maximum cell proliferation activity of compound X maleic acid salt C type crystals ({drug1b}) was 102%, based on the maximum cell proliferation activity of rhTPO being 100%. […] Therefore, compound X maleic acid salt C type crystals ({drug1b}) are useful for treating and preventing various types of thrombocytopenia by having a thrombocytosis effect. […]

[4] = test system: Ba/F3 cells where c-mpl was not introduced; experiment: Cell proliferation test in Ba/F3 cells without c-mpl; assay type: cell-based
[5] = Pharmacokinetics of Compound [1] in Phase I and II studies; settings: continuous daily dosing regimen, doses of 400 mg/day and above
[6] = test system: HCC78 cells; experiment: cells; settings: Homo sapiens, HCC78, read-out: IC50 for inhibition of HCC78 cell viability
[7] = Hygroscopicity (water absorbed); assay type: physicochemical
[8] = pH 1, compared to the free acid form
[9] = dosed at 10mg/kg, compared to the free acid form
[10] = pKa; assay type: physicochemical
Excerpt: Suitable alkalizing agents include but are not limited to organic and inorganic basic compounds of a wide range of aqueous solubilities and molecular weights and mixtures thereof. Examples of inorganic basic salts include ammonium hydroxide, alkali metal salts, alkaline earth metal salts such as magnesium oxide, magnesium hydroxide, calcium hydroxide, sodium hydroxide, potassium hydroxide, aluminium hydroxide, potassium carbonate, sodium bicarbonate and the like and mixtures thereof. In particular, an alkalizing agent is selected from magnesium oxide, calcium carbonate, calcium phosphate and combinations thereof. More particularly, the alkalizing agent is magnesium oxide. […] Examples of precipitation inhibitors include but are not limited to polyvinyl pyrrolidone, for example those products known as PVP K30, PVP K29/32 and PVPP XL, and hydroxy propyl methyl cellulose (HPMC), for example those products known as […]® low viscous hypromellose-based water-soluble film coating agent. […] As used herein, the term "oral dosage form" refers to physically discrete units suitable as unitary dosages for humans and other mammals, each unit containing a predetermined quantity of a therapeutic agent in association with one or more pharmaceutically acceptable carrier. […]

[11] = physchem; settings: pH 1.2, simulated gastric fluid
[12] = 3 mg/kg orally, blood 2 hours after administration, maximum activity of each test compound = 100%

## COC(=O)[C@@H]1C[C@@H]2CN1C(=O)[C@H](C(C)(C)C)NC(=O)O[C@@H]1C[C@H]1CCCC#Cc1nc3ccc(OC)cc3nc1O2
[1]
  ring closure, yield of all isomers: 88.6%

## O=C(Nc1nc(-c2cc(Cl)cs2)c(N2CCN(C3CCCCC3)CC2)s1)c1cnc(N2CCC(C(=O)O)CC2)c(Cl)c1 [1-(3-chloro-5-{[4-(4-chlorothiophen-2-yl)-5-(4-cyclohexylpiperazin-1-yl)thiazol-2-yl]carbamoyl}pyridin-2-yl) piperidine-4-carboxylic acid maleic acid salt, reference compound]
[2]; 3 mg/kg orally, blood 2 hours after administration, 10% blood plasma concentration, maximum activity of each test compound = 100%, read-out: Cell proliferation activity (%) 10%
  activity at 3 mg/kg: > 80%

## O=C(Nc1nc(-c2cc(Cl)cs2)c(N2CCN(C3CCCCC3)CC2)s1)c1cnc(N2CCC(C(=O)O)CC2)c(Cl)c1 [1-(3-chloro-5-{[4-(4-chlorothiophen-2-yl)-5-(4-cyclohexylpiperazin-1-yl)thiazol-2-yl]carbamoyl}pyridin-2-yl) piperidine-4-carboxylic acid maleic acid salt]
[3]; Homo sapiens, 24 hours culture, WST-1/1-methoxy PMS readout, read-out: cell proliferation effect, EC50
  EC50: 2 nM
[2]; 3 mg/kg orally, blood 2 hours after administration, 0.1% blood plasma concentration, maximum activity of each test compound = 100%, read-out: Cell proliferation activity (%) 0.1%
  activity at 3 mg/kg: 30%

## O=C(Nc1nc(-c2cc(Cl)cs2)c(N2CCN(C3CCCCC3)CC2)s1)c1cnc(N2CCC(C(=O)O)CC2)c(Cl)c1 [Compound X hydrochloride, reference compound]
[2]; [12]
  Cell proliferation activity (%) 0.3%: < 10%
[2]; 3 mg/kg orally, blood 2 hours after administration, 10% blood plasma concentration, maximum activity of each test compound = 100%
  Cell proliferation activity (%) 10%: 34%

## O=C(Nc1nc(-c2cc(Cl)cs2)c(N2CCN(C3CCCCC3)CC2)s1)c1cnc(N2CCC(C(=O)O)CC2)c(Cl)c1.O=C(O)/C=C\C(=O)O [Compound X maleic acid salt A type crystal] [1-(3-chloro-5-{[4-(4-chlorothiophen-2-yl)-5-(4-cyclohexylpiperazin-1-yl)thiazol-2-yl]carbamoyl}pyridin-2-yl) piperidine-4-carboxylic acid maleic acid salt, reference compound]
[2]; [12]
  Cell proliferation activity (%) 0.3%: 55%
[2]; listed as compound X maleic acid salt A type crystals
  oral absorption: excellent oral absorption

## O=C(Nc1nc(-c2cc(Cl)cs2)c(N2CCN(C3CCCCC3)CC2)s1)c1cnc(N2CCC(C(=O)O)CC2)c(Cl)c1.O=C(O)/C=C\C(=O)O [Compound X maleic acid salt B type crystal] [1-(3-chloro-5-{[4-(4-chlorothiophen-2-yl)-5-(4-cyclohexylpiperazin-1-yl)thiazol-2-yl]carbamoyl}pyridin-2-yl) piperidine-4-carboxylic acid maleic acid salt]
[2]; [12]
  Cell proliferation activity (%) 0.3%: < 10%
[2]; listed as compound X maleic acid B type crystals
  oral absorption: inferior oral absorption

## O=C(Nc1nc(-c2cc(Cl)cs2)c(N2CCN(C3CCCCC3)CC2)s1)c1cnc(N2CCC(C(=O)O)CC2)c(Cl)c1.O=C(O)/C=C\C(=O)O [Compound X maleic acid salt C type crystal] [1-(3-chloro-5-{[4-(4-chlorothiophen-2-yl)-5-(4-cyclohexylpiperazin-1-yl)thiazol-2-yl]carbamoyl}pyridin-2-yl) piperidine-4-carboxylic acid maleic acid salt]
[3]; based on the maximum cell proliferation activity of rhTPO being 100%
  maximum cell proliferation activity: 102%
[4]
  cell proliferation effect: not observed
[2]; [12]
  Cell proliferation activity (%) 0.3%: > 80%
[2]
  oral absorption: excellent oral absorption

## CN1CCN(c2ccc3nc(-c4c(N)c5c(F)cccc5[nH]c4=O)[nH]c3c2)CC1 [Compound [1]]
[5]
  exposure: prolonged over-proportional exposure

## C[C@@H](Oc1cc(-c2cnn(C3CCNCC3)c2)cnc1N)c1c(Cl)ccc(F)c1Cl [Crizotinib, 3-[(R)-1-(2,6-dichloro-3-fluoro-phenyl)-ethoxy]-5-(1-piperidin-4-yl-1-H -pyrazol-4-yl)-pyridin-2-ylamine]
[6]
  IC50: ~59 nM

## CCC(CC)Nc1c(Nc2ccc(Cl)c(S(=O)(=O)N(C)OC)c2O)c(=O)c1=O [choline salt, 6-chloro-3-[2-(1-ethyl-propylamino)-3,4-dioxo-cyclobut-1-enylamino]-2-hydroxy-N-methoxy-N-methyl-benzenesulfonamide choline]
[7]; after 1 day at 80% humidity
  amount of water absorbed: 0.7 % by weight
[7]; after 1 day at 92% humidity
  amount of water absorbed: 0.6 % by weight
[8]
  dissolution rate: much improved
[9]
  oral exposure: much improved

## CCC(CC)Nc1c(Nc2ccc(Cl)c(S(=O)(=O)N(C)OC)c2O)c(=O)c1=O [free acid, 6-chloro-3-[2-(1-ethyl-propylamino)-3,4-dioxo-cyclobut-1-enylamino]-2-hydroxy-N-methoxy-N-methyl-benzenesulfonamide, reference compound]
[7]; after 1 day at 80% humidity
  amount of water absorbed: 2.4 % by weight
[7]; after 1 day at 92% humidity
  amount of water absorbed: 2.8 % by weight
[10]
  pKa: 5.4
[11]
  solubility: 1 µg/mL (≈ 2.32 µM)
